Source: PubChem BioAssay AID2060907 (Molecular Pharmacology Branch, DTP, NCI, 2025)

Test system: 388556-164-R-J1-PDC complex spheroid viability
Experiment: Anticancer human tumor 388556-164-R-J1-PDC patient-derived colon adenocarcinoma cell line growth inhibition [RAS]
Details: for IC50: curve of first compound; for viability, T/C: stronger effect = lower value
Method in brief: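 Tumour cells grown as complex spheroids with HUVEC endothelial cells and mesenchymal stem cells, treated with RAS pathway inhibitor combinations. Each agent spans half-log steps from near clinical Cmax, or 10 microM where Cmax is unknown.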
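Also: spheroids exposed to compound for 7 days before readout.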
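For viability, T/C in this document: 100% = DMSO vehicle control luminescence.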

## CCc1c2c(nc3ccc(O)cc13)-c1cc3c(c(=O)n1C2)COC(=O)[C@]3(O)CC + CCn1c(-c2cc(N3CCN(C)CC3)cnc2C(C)OC)c2c3cc(ccc31)-c1csc(n1)CC(NC(=O)C1CC1C)C(=O)N1CCCC(N1)C(=O)OCC(C)(C)C2
Second compound 0.000949 µM
  IC50: 46.6 nM
Second compound 0.003 µM
  IC50: 28.1 nM
Second compound 0.00949 µM
  IC50: 19.6 nM
Second compound 0.03 µM
  IC50: 7.33 nM
Second compound 0.0949 µM
  IC50: < 0.949 nM
Second compound 0.3 µM
  IC50: < 0.949 nM
Second compound 0.000949 µM, first compound 0.000949 µM
  viability, T/C: 90.3%
Second compound 0.000949 µM, first compound 0.003 µM
  viability, T/C: 89.5%
Second compound 0.000949 µM, first compound 0.00949 µM
  viability, T/C: 66.3%
Second compound 0.000949 µM, first compound 0.03 µM
  viability, T/C: 56%
Second compound 0.000949 µM, first compound 0.0949 µM
  viability, T/C: 42.1%
Second compound 0.000949 µM, first compound 0.3 µM
  viability, T/C: 23.5%
Second compound 0.003 µM, first compound 0.000949 µM
  viability, T/C: 89.9%
Second compound 0.003 µM, first compound 0.003 µM
  viability, T/C: 83.6%
Second compound 0.003 µM, first compound 0.00949 µM
  viability, T/C: 67.5%
Second compound 0.003 µM, first compound 0.03 µM
  viability, T/C: 46.3%
Second compound 0.003 µM, first compound 0.0949 µM
  viability, T/C: 36.4%
Second compound 0.003 µM, first compound 0.3 µM
  viability, T/C: 21.8%
Second compound 0.00949 µM, first compound 0.000949 µM
  viability, T/C: 82.2%
Second compound 0.00949 µM, first compound 0.003 µM
  viability, T/C: 78.4%
Second compound 0.00949 µM, first compound 0.00949 µM
  viability, T/C: 55.7%
Second compound 0.00949 µM, first compound 0.03 µM
  viability, T/C: 41.8%
Second compound 0.00949 µM, first compound 0.0949 µM
  viability, T/C: 36.5%
Second compound 0.00949 µM, first compound 0.3 µM
  viability, T/C: 18.7%
Second compound 0.03 µM, first compound 0.000949 µM
  viability, T/C: 58.2%
Second compound 0.03 µM, first compound 0.003 µM
  viability, T/C: 55.5%
Second compound 0.03 µM, first compound 0.00949 µM
  viability, T/C: 50.5%
Second compound 0.03 µM, first compound 0.03 µM
  viability, T/C: 37.8%
Second compound 0.03 µM, first compound 0.0949 µM
  viability, T/C: 30.2%
Second compound 0.03 µM, first compound 0.3 µM
  viability, T/C: 16.6%
Second compound 0.0949 µM, first compound 0.000949 µM
  viability, T/C: 44.3%
Second compound 0.0949 µM, first compound 0.003 µM
  viability, T/C: 39.1%
Second compound 0.0949 µM, first compound 0.00949 µM
  viability, T/C: 48.9%
Second compound 0.0949 µM, first compound 0.03 µM
  viability, T/C: 30.1%
Second compound 0.0949 µM, first compound 0.0949 µM
  viability, T/C: 25.9%
Second compound 0.0949 µM, first compound 0.3 µM
  viability, T/C: 14.3%
Second compound 0.3 µM, first compound 0.000949 µM
  viability, T/C: 32.4%
Second compound 0.3 µM, first compound 0.003 µM
  viability, T/C: 31.5%
Second compound 0.3 µM, first compound 0.00949 µM
  viability, T/C: 28.2%
Second compound 0.3 µM, first compound 0.03 µM
  viability, T/C: 30.1%
Second compound 0.3 µM, first compound 0.0949 µM
  viability, T/C: 21.2%
Second compound 0.3 µM, first compound 0.3 µM
  viability, T/C: 11.5%

## CC(C)n1nc(-c2ccc3oc(N)nc3c2)c2c(N)ncnc21 + C#Cc1c(F)ccc2cc(O)cc(-c3ncc4c(N5CC6CCC(C5)N6)nc(OCC56CCCN5CC(F)C6)nc4c3F)c12
Second compound 0.0316 µM
  IC50: 98.5 nM
Second compound 0.1 µM
  IC50: 78.5 nM
Second compound 0.316 µM
  IC50: 48.7 nM
Second compound 1 µM
  IC50: 41.6 nM
Second compound 3.16 µM
  IC50: 39.2 nM
Second compound 10 µM
  IC50: 10.6 nM
Second compound 0.0316 µM, first compound 0.000316 µM
  viability, T/C: 98.6%
Second compound 0.0316 µM, first compound 0.001 µM
  viability, T/C: 97.7%
Second compound 0.0316 µM, first compound 0.00316 µM
  viability, T/C: 89.9%
Second compound 0.0316 µM, first compound 0.01 µM
  viability, T/C: 75.7%
Second compound 0.0316 µM, first compound 0.0316 µM
  viability, T/C: 64%
Second compound 0.0316 µM, first compound 0.1 µM
  viability, T/C: 49.4%
Second compound 0.1 µM, first compound 0.000316 µM
  viability, T/C: 95.7%
Second compound 0.1 µM, first compound 0.001 µM
  viability, T/C: 99.7%
Second compound 0.1 µM, first compound 0.00316 µM
  viability, T/C: 90.6%
Second compound 0.1 µM, first compound 0.01 µM
  viability, T/C: 78.5%
Second compound 0.1 µM, first compound 0.0316 µM
  viability, T/C: 62.6%
Second compound 0.1 µM, first compound 0.1 µM
  viability, T/C: 46.6%
Second compound 0.316 µM, first compound 0.000316 µM
  viability, T/C: 91.6%
Second compound 0.316 µM, first compound 0.001 µM
  viability, T/C: 97.1%
Second compound 0.316 µM, first compound 0.00316 µM
  viability, T/C: 79.5%
Second compound 0.316 µM, first compound 0.01 µM
  viability, T/C: 79.5%
Second compound 0.316 µM, first compound 0.0316 µM
  viability, T/C: 56%
Second compound 0.316 µM, first compound 0.1 µM
  viability, T/C: 37.8%
Second compound 1 µM, first compound 0.000316 µM
  viability, T/C: 90.5%
Second compound 1 µM, first compound 0.001 µM
  viability, T/C: 88%
Second compound 1 µM, first compound 0.00316 µM
  viability, T/C: 69.9%
Second compound 1 µM, first compound 0.01 µM
  viability, T/C: 71.5%
Second compound 1 µM, first compound 0.0316 µM
  viability, T/C: 55.6%
Second compound 1 µM, first compound 0.1 µM
  viability, T/C: 35.5%
Second compound 3.16 µM, first compound 0.000316 µM
  viability, T/C: 82.2%
Second compound 3.16 µM, first compound 0.001 µM
  viability, T/C: 74.4%
Second compound 3.16 µM, first compound 0.00316 µM
  viability, T/C: 68.5%
Second compound 3.16 µM, first compound 0.01 µM
  viability, T/C: 73.5%
Second compound 3.16 µM, first compound 0.0316 µM
  viability, T/C: 52.3%
Second compound 3.16 µM, first compound 0.1 µM
  viability, T/C: 31.4%
Second compound 10 µM, first compound 0.000316 µM
  viability, T/C: 74.6%
Second compound 10 µM, first compound 0.001 µM
  viability, T/C: 59.9%
Second compound 10 µM, first compound 0.00316 µM
  viability, T/C: 60.1%
Second compound 10 µM, first compound 0.01 µM
  viability, T/C: 53.3%
Second compound 10 µM, first compound 0.0316 µM
  viability, T/C: 40.3%
Second compound 10 µM, first compound 0.1 µM
  viability, T/C: 29.9%
